From patent US20110312513A1, “BIOMARKERS FOR PREDICTING SUSTAINED RESPONSE TO HCV TREATMENT” (ROCHE MOLECULAR SYSTEMS, INC., priority 2009, published 2011)

What was measured:
[1] = Phase II clinical trial of RO4588161: premature withdrawal for safety reasons; assay type: in vivo, human; settings: among the 104 evaluable patients
Source text: A screening period (time from the first screening assessment to the first administration of test drug) of 35 days preceded the treatment portion of the trial (FIG. 1). The HCV genotype and HCV RNA titer of each patient was confirmed during the screening period and only treatment-naïve patients with HCV genotype-1 and HCV RNA titer ≧50,000 IU/mL were eligible for enrollment.
One hundred and seven male and female patients between 18 and 66 years of age were enrolled into the study.

HCV = settings: monotherapy; cited from earlier work

| SMILES | patients who prematurely withdrew for safety reasons from treatment [1] [patients] | effect on serum levels of HCV-RNA (HCV) | patients with serum amino transferase levels reduced to normal (HCV) [%] |
| --- | --- | --- | --- |
| CC(C)C(=O)OC[C@@]1(N=[N+]=[N-])O[C@@H](n2ccc(N)nc2=O)[C@H](OC(=O)C(C)C)[C@@H]1OC(=O)C(C)C [RO4588161, Isobutyric acid (2R,3S,4R,5R)-5-(4-amino-2-oxo-2H-pyrimidin-1-yl)-2-azido-3,4-bis-isobutyryloxy-tetrahydro-furan-2-ylmethyl ester] | 43 |  |  |
| NC(=O)c1ncn([C@@H]2O[C@H](CO)[C@@H](O)[C@H]2O)n1 [ribavirin, 1-((2R,3R,4S,5R)-3,4-Dihydroxy-5-hydroxymethyl-tetrahydro-furan-2-yl)-1H-[1,2,4]triazole-3-carboxylic acid amide] | 5 | does not lower serum levels of HCV-RNA | 40 |
